Legend:
Type in all cases: cell-based
[1] = system: Tp 242 MG glioblastoma cells; experiment: 3H-thymidine assay; settings: Homo sapiens
[2] = system: At T 20; experiment: 3H-thymidine assay; settings: Mus musculus, AtT20
Outline: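 Proliferation of AtT20 tumor cells was assessed by 3H-thymidine incorporation. 10^4 cells per well were seeded in 24-well plates and grown about 48 hours to half-confluence, then given medium with the active substance. Cells were washed twice in ice-cold PBS, high-molecular-weight 3H-radioactivity was precipitated with 5% trichloroacetic acid for one hour at 4° C, solubilized in 0.3M NaOH and counted.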

[3] = system: CAKI-1 cells; experiment: 3H-thymidine assay; settings: Homo sapiens, CAKI-1
Outline: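 CAKI-1 human tumor cells were seeded at 10^4 cells per well in 24-well plates and grown about 48 hours until half-confluent. The medium was then swapped for one containing the test substance. Cells were washed twice in ice-cold PBS, and macromolecular 3H-radioactivity was precipitated with 5% trichloroacetic acid for one hour at 4° C.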

[4] = system: MCF-7 breast cancer cells; experiment: 3H-thymidine assay; settings: Homo sapiens, MCF7
Outline: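 Antiproliferative activity against human MCF-7 breast cancer cells was measured by 3H-thymidine incorporation. Cells (10^4 per well) were seeded in 24-well plates, grown about 48 hours to half-confluence, then given medium containing the test substance. After two ice-cold PBS washes, high-molecular-weight 3H-radioactivity was precipitated with 5% trichloroacetic acid for one hour at 4° C, solubilized in 0.3M NaOH and counted; incorporation was compared with untreated cells.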

[5] = system: A-375 melanoma cells; experiment: 3H-thymidine assay; settings: Homo sapiens, A-375
[6] = system: brain-tumor cells (glioblastoma cells); experiment: growth inhibition of brain-tumor cells; settings: Tables 1 to 3
[7] = Table 4, read-out: active substance concentration at which 3H-thymidine insertion was 50% inhibited
[8] = 1 μM/ml, read-out: 3H-thymidine tracer (%) of control
[9] = 2 μM/ml, read-out: 3H-thymidine tracer (%) of control
[10] = 4 μM/ml, read-out: 3H-thymidine tracer (%) of control
[11] = 8 μM/ml, read-out: 3H-thymidine tracer (%) of control
[12] = 16 μM/ml, read-out: 3H-thymidine tracer (%) of control
[13] = 25 μM/ml, read-out: 3H-thymidine tracer (%) of control
[14] = 50 μM/ml, read-out: 3H-thymidine tracer (%) of control
[15] = 100 μM/ml, read-out: 3H-thymidine tracer (%) of control
[16] = 250 μM/ml, read-out: 3H-thymidine tracer (%) of control
[17] = 500 μM/ml, read-out: 3H-thymidine tracer (%) of control
[18] = Table 4, *: maximum usable dosage, no 50% inhibition, read-out: active substance concentration at which 3H-thymidine insertion was 50% inhibited

In the case of `O=c1ccc2cc(O)c(O)cc2o1` [Esculetin, 6,7-hydroxy-1,2-benzopyrone], the activity at 1 µM ([1]; 1 μM/ml, read-out: 3H-thymidine insertion (%) of control) is reported as 96%, the activity at 2 µM ([1]; 2 μM/ml, read-out: 3H-thymidine insertion (%) of control) is reported as 96% and the activity at 4 µM ([1]; 4 μM/ml, read-out: 3H-thymidine insertion (%) of control) is reported as 89%. It also gave an activity at 8 µM ([1]; 8 μM/ml, read-out: 3H-thymidine insertion (%) of control) of 87%, an activity at 16 µM ([1]; 16 μM/ml, read-out: 3H-thymidine insertion (%) of control) of 75% and an activity at 25 µM ([1]; 25 μM/ml, read-out: 3H-thymidine insertion (%) of control) of 72%. For the same compound, the activity at 50 µM ([1]; 50 μM/ml, read-out: 3H-thymidine insertion (%) of control) was 60%, the activity at 100 µM ([1]; 100 μM/ml, read-out: 3H-thymidine insertion (%) of control) was 44% and the activity at 250 µM ([1]; 250 μM/ml, read-out: 3H-thymidine insertion (%) of control) was 32%. For the same compound, the activity at 500 µM ([1]; 500 μM/ml, read-out: 3H-thymidine insertion (%) of control) was 21%, the IC50 [1, 7] was 75 µM and the activity at 1 µM [2, 8] was 93%. For the same compound, the activity at 2 µM [2, 9] was 89%, the activity at 4 µM [2, 10] was 86% and the activity at 8 µM [2, 11] was 75%. For the same compound, the activity at 16 µM [2, 12] was 75%, the activity at 25 µM [2, 13] was 67% and the activity at 50 µM [2, 14] was 62%. For the same compound, the activity at 100 µM [2, 15] was 55%, the activity at 250 µM [2, 16] was 49% and the activity at 500 µM [2, 17] was 44%. It also gave an IC50 [2, 7] of 250 µM, an activity at 1 µM [3, 8] of 96% and an activity at 2 µM [3, 9] of 93%. It also gave an activity at 4 µM [3, 10] of 88%, an activity at 8 µM [3, 11] of 80% and an activity at 16 µM [3, 12] of 62%. The activity at 25 µM [3, 13] was 58%, the activity at 50 µM [3, 14] was 53% and the activity at 100 µM [3, 15] was 45%. For the same compound, the activity at 150 µM ([3]; 150 μM/ml, read-out: 3H-thymidine tracer (%) of control) was 40%, the activity at 500 µM [3, 17] was 32% and the IC50 [3, 18] was 50 µM. For the same compound, the activity at 1 µM [4, 8] was 100%, the activity at 2 µM [4, 9] was 98% and the activity at 4 µM [4, 10] was 92%. The activity at 8 µM [4, 11] was 85%, the activity at 16 µM [4, 12] was 76% and the activity at 25 µM [4, 13] was 69%. It also gave an activity at 50 µM [4, 14] of 64%, an activity at 100 µM [4, 15] of 58% and an activity at 250 µM [4, 16] of 50%. The activity at 500 µM [4, 17] was 42%, the IC50 [4, 18] was 250 µM and the activity at 1 µM [5, 8] was 98%. For the same compound, the activity at 2 µM [5, 9] was 91%, the activity at 4 µM [5, 10] was 89% and the activity at 8 µM [5, 11] was 84%. The activity at 16 µM [5, 12] was 75%, the activity at 25 µM [5, 13] was 70% and the activity at 50 µM [5, 14] was 65%. It also gave an activity at 100 µM [5, 15] of 63%, an activity at 250 µM [5, 16] of 59% and an activity at 500 µM [5, 17] of 55%. The IC50 [5, 18] was > 500 µM and the “growth-inhibiting effect on brain-tumor cells” value [6] was “strong growth-inhibiting effect on brain-tumor cells”.
